In patent publication US11672753B2, “Composition for sebum control and pore minimizing” (AMOREPACIFIC CORPORATION, priority 2017, dated 2023):

Assays:
[1] = system: procollagen-I in human fibroblasts; test: Evaluation of procollagen-I production activity (ELISA of culture solution); assay type: cell-based; details: TGF-β1 0.005 ppm (comparison); two days after treatment
Excerpt: An enzyme-linked immunosorbent assay (ELISA) method was used to confirm the amount of procollagen-I produced by the plant extracts of the present disclosure (Youngren et al., 1999). Since procollagen-I is a substance secreted out of cells, the culture solution of the fibroblasts treated with the samples was collected and applied to the experiment as a measurement method for confirming the expression change using the cell culture solution.
Specifically, human fibroblasts (Cell biologics, IL, USA) were inoculated into a 24-well culture plate at 2.5×10^4 cells. After inoculation, it was allowed to stand for one day so that the cells adhered to the bottom of the culture plate. At this time, 2% of low serum growth supplement (LSGS; Thermo Fisher, Mass., USA), […] of streptomycin (the above two reagents, GIBCO, Milan, Italy) were added to 106 medium (Thermo Fisher, Mass., USA) and used as a medium. Each plant extract obtained in Reference Examples 1 to 7 in the experimental group was dissolved in DMSO to make a 1% solution, and then diluted in DMEM medium, and treated to a final concentration of 50 ppm. In addition, for comparison, TGF-β1, known to have the ability to produce procollagen-I, was treated at a concentration of 0.005 ppm instead of the plant extracts. Two days after the treatment with the samples, the production of procollagen-I was measured. […]

[2] = system: HaCaT keratinocytes and human sebaceous gland cells; test: Evaluation of sebum production inhibitory activity (Oil Red O staining of triglycerides); assay type: cell-based; details: retinol 0.3 ppm (comparison); one day
Excerpt: In order to efficiently evaluate the sebum production inhibitory activity of the plant extracts of the present disclosure, sebaceous gland cells and keratinocytes were used together, and an environment in vitro model similar to that of human sebaceous glands of the hair was used. HaCaT (ATCC, Va., USA), keratinocytes (Cellprogen, Calif., USA) cells and human sebaceous gland cells were inoculated into a 24-well culture plate at 3.75×10^4 cells and 6.0×10^4 cells, respectively. After inoculation, it was allowed to stand for one day so that the cells adhered to the bottom of the culture plate. At this time, 10% of fetal bovine serum (JRH Bioscience, Tokyo, Japan), […] of streptomycin (the above two reagents, GIBCO, Milan, Italy) were added to DMEM medium (Invitrogen, Carlsbad, Calif.) and used as a medium. After one day, the cells were treated with 50 μM of linoleic acid, 50 μM of arachidonic acid, or 10 nM of dihydrotestosterone, as a stimulating source for causing seborrheic skin inflammation. […] After one day, the amount of triglycerides produced in the cells was measured using Oil Red O staining. […] Then, the […], and the absorbance was measured at 520 nm using a spectrophotometer for quantification. […]

TGF-β1: known to have the ability to produce procollagen-I; comparison
Production rate of Procollagen-I (%) [1]: 52.1%

CC1=C(/C=C/C(C)=C/C=C/C(C)=C/CO)C(C)(C)CCC1 [Retinol]
Inhibition rate of sebum production (%) [2]: 42.1%
